Consider five compounds from ChEMBL document CHEMBL5620377, “Research progress of VEGFR small molecule inhibitors in ocular neovascular diseases” (Eur J Med Chem, 2023).

For orientation: IC50 means the point on the concentration scale where inhibition reaches its midpoint. A word on the half-life: it is how long it takes for the measured level to halve. Read a low half-life as rapid decline.

Data set [1] addresses T1, Vascular endothelial growth factor receptor 2 (Homo sapiens, UniProt P35968). Briefly: Inhibition of VEGFR-2 (unknown origin).
Data set [2] concerns the target T1, Vascular endothelial growth factor receptor 2. Put plainly: Inhibition of recombinant human VEGFR2 using Poly (Glu,Tyr) 4:1 as substrate incubated for 1 hr by ELISA. For orientation: ELISA stands for enzyme-linked immunosorbent assay.
Data set [3] has as its target Platelet-derived growth factor receptor beta (Homo sapiens, UniProt P09619). Put plainly: Inhibition of recombinant human PDGFRbeta using Poly (Glu,Tyr) 4:1 as substrate incubated for 1 hr by ELISA.
Data set [4] can be described thus: Inhibition of PDGFRbeta (561 to 1106 residues) (unknown origin). Also on record: species or system Homo sapiens.
In the next data set the test system is HUVEC. Put plainly: Inhibition of VEGF-induced HUVECs proliferation. The class given is functional, cell-based. To be noted: Homo sapiens.
Data set [5] is described as follows: Half life in human. Format: ADME.

The structures appear in SMILES notation.

T1 sequence (P35968 whole entry): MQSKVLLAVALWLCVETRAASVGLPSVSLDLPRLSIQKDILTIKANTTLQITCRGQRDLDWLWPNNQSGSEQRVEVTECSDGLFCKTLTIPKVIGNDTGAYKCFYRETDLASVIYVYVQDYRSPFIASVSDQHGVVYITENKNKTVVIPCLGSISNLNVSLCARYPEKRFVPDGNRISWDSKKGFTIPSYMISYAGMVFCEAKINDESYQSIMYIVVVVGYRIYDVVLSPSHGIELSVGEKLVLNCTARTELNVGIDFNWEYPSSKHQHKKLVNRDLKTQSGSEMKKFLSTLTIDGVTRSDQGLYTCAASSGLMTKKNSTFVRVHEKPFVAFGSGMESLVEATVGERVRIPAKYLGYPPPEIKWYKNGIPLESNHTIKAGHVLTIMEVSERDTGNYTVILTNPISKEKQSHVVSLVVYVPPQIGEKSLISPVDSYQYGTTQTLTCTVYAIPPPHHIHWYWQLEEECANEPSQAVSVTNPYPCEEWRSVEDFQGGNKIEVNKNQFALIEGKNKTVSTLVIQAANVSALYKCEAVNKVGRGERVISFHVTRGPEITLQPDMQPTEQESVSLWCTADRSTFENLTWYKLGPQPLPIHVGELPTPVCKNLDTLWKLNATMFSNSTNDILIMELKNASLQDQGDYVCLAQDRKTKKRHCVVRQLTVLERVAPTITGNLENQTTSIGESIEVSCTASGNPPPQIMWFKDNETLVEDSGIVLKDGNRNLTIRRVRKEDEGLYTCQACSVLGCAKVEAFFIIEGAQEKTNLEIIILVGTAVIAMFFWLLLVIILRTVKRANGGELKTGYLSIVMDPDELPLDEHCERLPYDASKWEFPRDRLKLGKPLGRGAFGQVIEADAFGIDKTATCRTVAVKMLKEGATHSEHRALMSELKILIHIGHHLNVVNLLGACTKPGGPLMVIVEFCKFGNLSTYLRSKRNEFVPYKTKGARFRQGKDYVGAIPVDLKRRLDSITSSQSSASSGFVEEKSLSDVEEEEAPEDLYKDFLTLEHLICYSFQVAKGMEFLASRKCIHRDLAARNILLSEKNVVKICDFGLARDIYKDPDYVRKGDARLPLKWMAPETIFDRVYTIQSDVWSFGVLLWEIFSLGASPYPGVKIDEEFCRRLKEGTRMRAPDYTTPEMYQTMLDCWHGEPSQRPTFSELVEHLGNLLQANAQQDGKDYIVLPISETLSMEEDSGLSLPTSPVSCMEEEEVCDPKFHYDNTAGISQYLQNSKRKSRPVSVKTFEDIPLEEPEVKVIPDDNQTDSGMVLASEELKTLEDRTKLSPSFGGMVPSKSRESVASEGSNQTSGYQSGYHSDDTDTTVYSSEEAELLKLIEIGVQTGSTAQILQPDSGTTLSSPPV
Platelet-derived growth factor receptor beta, sequence (P09619 whole entry, the tested form may be a part): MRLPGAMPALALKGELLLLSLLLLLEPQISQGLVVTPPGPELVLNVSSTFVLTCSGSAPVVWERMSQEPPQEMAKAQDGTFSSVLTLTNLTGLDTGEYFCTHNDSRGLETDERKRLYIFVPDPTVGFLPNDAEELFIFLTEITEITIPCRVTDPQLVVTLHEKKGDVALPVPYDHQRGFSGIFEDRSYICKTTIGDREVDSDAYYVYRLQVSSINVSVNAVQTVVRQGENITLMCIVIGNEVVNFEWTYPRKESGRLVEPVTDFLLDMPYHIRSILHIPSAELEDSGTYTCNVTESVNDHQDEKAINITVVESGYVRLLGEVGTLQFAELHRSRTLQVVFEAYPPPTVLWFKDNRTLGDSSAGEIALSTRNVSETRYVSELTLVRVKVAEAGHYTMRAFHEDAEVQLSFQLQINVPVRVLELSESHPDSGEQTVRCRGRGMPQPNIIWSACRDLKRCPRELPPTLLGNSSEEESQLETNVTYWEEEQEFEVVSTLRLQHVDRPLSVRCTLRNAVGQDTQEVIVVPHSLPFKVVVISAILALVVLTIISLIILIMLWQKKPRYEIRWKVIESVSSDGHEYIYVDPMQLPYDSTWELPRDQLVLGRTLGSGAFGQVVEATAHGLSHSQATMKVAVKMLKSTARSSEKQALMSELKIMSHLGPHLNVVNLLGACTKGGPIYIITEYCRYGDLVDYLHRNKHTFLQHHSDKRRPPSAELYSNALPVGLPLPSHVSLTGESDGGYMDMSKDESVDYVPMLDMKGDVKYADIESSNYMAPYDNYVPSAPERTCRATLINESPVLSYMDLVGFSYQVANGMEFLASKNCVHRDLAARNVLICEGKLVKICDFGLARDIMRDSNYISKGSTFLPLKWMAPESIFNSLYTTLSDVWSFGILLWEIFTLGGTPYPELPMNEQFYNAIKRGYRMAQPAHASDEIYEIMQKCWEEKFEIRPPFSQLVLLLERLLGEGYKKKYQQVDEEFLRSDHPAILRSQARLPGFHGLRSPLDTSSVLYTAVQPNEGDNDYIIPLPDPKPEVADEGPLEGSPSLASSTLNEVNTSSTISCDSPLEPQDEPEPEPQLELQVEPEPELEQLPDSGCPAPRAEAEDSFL

As for `C=C1C(=O)O[C@H]2C[C@H](C)C(/C=C/C(C)=O)=CC[C@H]12`, it took 0.38 µM to reach half-maximal inhibition in data set [1] (IC50). For the compound `COc1cc2c(Oc3ccc4[nH]c(C)cc4c3F)ccnc2cc1OCC1(N)CC1` [CATEQUENTINIB], the IC50 in data set [1] was under 0.001 µM; in data set [2], 0.0002 µM; in data set [3], 0.115 µM. As for `CNC(=O)c1cc(Oc2ccc(NC(=O)Nc3ccc(Cl)c(C(F)(F)F)c3)c(F)c2)ccn1` [REGORAFENIB], the IC50 in data set [4] was 0.022 µM.

Turning to `CCN(CC)CCNC(=O)c1c(C)[nH]c(/C=C2\C(=O)Nc3ccc(F)cc32)c1C` [SUNITINIB], the IC50 in the data set with HUVEC worked out at 0.012 µM. Also, the half-life in data set [5] is over 40 h.

On to `Cc1[nH]c(/C=C2\C(=O)Nc3ccc(F)cc32)c(C)c1C(=O)N[C@H]1CCN(C(=O)N(C)C)C1` [VOROLANIB], for which, in the data set on HUVEC, half-maximal inhibition (IC50) was put at 0.0315 µM. This compound had a half-life in data set [5] of 6.5 h.
